Laboratory results taken from ChEMBL document CHEMBL1201862, “PubChem BioAssay data set” (2004).
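1) Cells in 96-well plates. 2) Compound, 48 h, 5 concentrations. 3) Linear interpolation between surrounding doses. 4) Unreached endpoint = highest concentration. GI50 marks 50% less growth.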 Calls of active or inactive are those of the source. Rule as the data show it: active = GI50 up to about 1.1 µM and inactive = higher.

Key:
Test in all cases: inhibition of tumour cell growth, NCI panel, 48 h
Hs-578T = test system: Hs-578T
UACC-257 = test system: UACC-257
SW-620 = test system: SW-620
SK-OV-3 = test system: SK-OV-3
TK-10 = test system: TK-10
NCI-H460 = test system: NCI-H460
K562 = test system: K562
BT-549 = test system: BT-549
A549 = test system: A549
A498 = test system: A498
T47D = test system: T47D
MCF7 = test system: MCF7
COLO 205 = test system: COLO 205
HT-29 = test system: HT-29
HL-60 = test system: HL-60
KM12 = test system: KM12
HCT-15 = test system: HCT-15
UACC-62 = test system: UACC-62
CCRF-CEM = test system: CCRF-CEM
MOLT-4 = test system: MOLT-4
HCT-116 = test system: HCT-116
HOP-92 = test system: HOP-92
HOP-62 = test system: HOP-62
OVCAR-8 = test system: OVCAR-8
MDA-MB-435 = test system: MDA-MB-435
SK-MEL-5 = test system: SK-MEL-5
NCI-H226 = test system: NCI-H226
SNB-75 = test system: SNB-75
IGROV-1 = test system: IGROV-1
EKVX = test system: EKVX
Malme-3M = test system: Malme-3M
NCI/ADR-RES = test system: NCI/ADR-RES
RXF 393 = test system: RXF 393
PC-3 = test system: PC-3
CAKI-1 = test system: CAKI-1
ACHN = test system: ACHN
SF-295 = test system: SF-295
SNB-19 = test system: SNB-19
RPMI-8226 = test system: RPMI-8226
M14 = test system: M14
MDA-N = test system: MDA-N
SR = test system: SR
OVCAR-5 = test system: OVCAR-5
NCI-H522 = test system: NCI-H522
786-0 = test system: 786-0
NCI-H23 = test system: NCI-H23
SF-539 = test system: SF-539
SK-MEL-2 = test system: SK-MEL-2
SF-268 = test system: SF-268
DU-145 = test system: DU-145
UO-31 = test system: UO-31
LOX IMVI = test system: LOX IMVI
OVCAR-3 = test system: OVCAR-3
MDA-MB-231 = test system: MDA-MB-231
SK-MEL-28 = test system: SK-MEL-28
U-251 = test system: U-251
SN12C = test system: SN12C
OVCAR-4 = test system: OVCAR-4
HCC 2998 = test system: HCC 2998

CC1=CP(=O)(c2c(C(C)C)cc(C(C)C)cc2C(C)C)CCC1Cl (stereo unspecified)
GI50 (Hs-578T): 27.5 µM (inactive)
GI50 (UACC-257): 11.6 µM (inactive)
GI50 (SW-620): 21.6 µM (inactive)
GI50 (SK-OV-3): 19.4 µM (inactive)
GI50 (TK-10): 15.9 µM (inactive)
GI50 (NCI-H460): 16 µM (inactive)
GI50 (K562): 10.2 µM (inactive)
GI50 (BT-549): 17.1 µM (inactive)
GI50 (A549): 14.1 µM (inactive)
GI50 (A498): 15.9 µM (inactive)
GI50 (T47D): 11.6 µM (inactive)
GI50 (MCF7): 15.4 µM (inactive)
GI50 (COLO 205): 14.9 µM (inactive)
GI50 (HT-29): 16.4 µM (inactive)
GI50 (HL-60): 13.7 µM (inactive)
GI50 (KM12): 17.3 µM (inactive)
GI50 (HCT-15): 16 µM
GI50 (UACC-62): 12 µM (inactive)
GI50 (CCRF-CEM): 14.1 µM (inactive)
GI50 (MOLT-4): 6.7 µM (inactive)
GI50 (HCT-116): 20.1 µM (inactive)
GI50 (HOP-92): 13.6 µM (inactive)
GI50 (HOP-62): 17 µM (inactive)
GI50 (OVCAR-8): 21.2 µM (inactive)
GI50 (MDA-MB-435): 17.7 µM (inactive)
GI50 (SK-MEL-5): 16.6 µM (inactive)
GI50 (NCI-H226): 19.1 µM (inactive)
GI50 (SNB-75): 14 µM (inactive)
GI50 (IGROV-1): 15.4 µM (inactive)
GI50 (EKVX): 16 µM (inactive)
GI50 (Malme-3M): 13.9 µM (inactive)
GI50 (NCI/ADR-RES): 15 µM (inactive)
GI50 (RXF 393): 14.7 µM (inactive)
GI50 (PC-3): 13.4 µM (inactive)
GI50 (CAKI-1): 16.8 µM (inactive)
GI50 (ACHN): 15.9 µM (inactive)
GI50 (SF-295): 12.4 µM (inactive)
GI50 (SNB-19): 14.4 µM (inactive)
GI50 (RPMI-8226): 13.3 µM (inactive)
GI50 (M14): 14 µM (inactive)
GI50 (MDA-N): 21.7 µM (inactive)
GI50 (SR): 0.769 µM (active)
GI50 (OVCAR-5): 16.4 µM (inactive)
GI50 (NCI-H522): 14.1 µM (inactive)
GI50 (786-0): 18.1 µM (inactive)
GI50 (NCI-H23): 16.6 µM (inactive)
GI50 (SF-539): 17.1 µM (inactive)
GI50 (SK-MEL-2): 16.1 µM (inactive)
GI50 (SF-268): 16.3 µM (inactive)
GI50 (DU-145): 19.6 µM (inactive)
GI50 (UO-31): 13.9 µM (inactive)
GI50 (LOX IMVI): 18.8 µM (inactive)
GI50 (OVCAR-3): 10.1 µM (inactive)
GI50 (MDA-MB-231): 15.3 µM (inactive)
GI50 (SK-MEL-28): 18.6 µM (inactive)
GI50 (U-251): 14.8 µM (inactive)
GI50 (SN12C): 17.7 µM (inactive)
GI50 (OVCAR-4): 19.3 µM (inactive)

O=C(c1ccco1)N1CCN(C(=O)c2ccco2)C1=S
GI50 (Hs-578T): 20.7 µM (inactive)
GI50 (UACC-257): 4.9 µM (inactive)
GI50 (SW-620): 5.66 µM (inactive)
GI50 (SK-OV-3): 17.3 µM (inactive)
GI50 (TK-10): 6.31 µM (inactive)
GI50 (HCC 2998): 12.4 µM (inactive)
GI50 (NCI-H460): 8.73 µM (inactive)
GI50 (K562): 1.87 µM (inactive)
GI50 (BT-549): 8.47 µM (inactive)
GI50 (A549): 7.74 µM (inactive)
GI50 (T47D): 4.78 µM (inactive)
GI50 (MCF7): 2.99 µM (inactive)
GI50 (COLO 205): 6.81 µM (inactive)
GI50 (HT-29): 8.05 µM (inactive)
GI50 (HL-60): 3.42 µM (inactive)
GI50 (KM12): 3.93 µM (inactive)
GI50 (HCT-15): 6.24 µM
GI50 (UACC-62): 6.34 µM (inactive)
GI50 (CCRF-CEM): 1.77 µM (inactive)
GI50 (MOLT-4): 1.42 µM (inactive)
GI50 (HCT-116): 9.86 µM (inactive)
GI50 (HOP-92): 7.23 µM (inactive)
GI50 (HOP-62): 10.6 µM (inactive)
GI50 (OVCAR-8): 11 µM (inactive)
GI50 (MDA-MB-435): 3.59 µM (inactive)
GI50 (SK-MEL-5): 10.1 µM (inactive)
GI50 (NCI-H226): 28.7 µM (inactive)
GI50 (SNB-75): 10.4 µM (inactive)
GI50 (IGROV-1): 9.64 µM (inactive)
GI50 (EKVX): 16.1 µM (inactive)
GI50 (Malme-3M): 6.07 µM (inactive)
GI50 (NCI/ADR-RES): 21.1 µM (inactive)
GI50 (RXF 393): 2.88 µM (inactive)
GI50 (PC-3): 4.78 µM (inactive)
GI50 (CAKI-1): 4.72 µM (inactive)
GI50 (ACHN): 8.07 µM (inactive)
GI50 (SF-295): 18.5 µM (inactive)
GI50 (SNB-19): 24.4 µM (inactive)
GI50 (RPMI-8226): 2.02 µM (inactive)
GI50 (M14): 6.22 µM (inactive)
GI50 (MDA-N): 4.7 µM (inactive)
GI50 (SR): 1.79 µM (inactive)
GI50 (OVCAR-5): 20.3 µM (inactive)
GI50 (NCI-H522): 3.91 µM (inactive)
GI50 (786-0): 3.28 µM (inactive)
GI50 (NCI-H23): 18.4 µM (inactive)
GI50 (SF-539): 3.33 µM (inactive)
GI50 (SK-MEL-2): 13 µM (inactive)
GI50 (SF-268): 6.01 µM (inactive)
GI50 (DU-145): 2.61 µM (inactive)
GI50 (UO-31): 3.68 µM (inactive)
GI50 (LOX IMVI): 3.59 µM (inactive)
GI50 (OVCAR-3): 3.44 µM (inactive)
GI50 (MDA-MB-231): 11.6 µM (inactive)
GI50 (SK-MEL-28): 5.87 µM (inactive)
GI50 (U-251): 10 µM (inactive)
GI50 (SN12C): 4.18 µM (inactive)
GI50 (OVCAR-4): 17.1 µM (inactive)

N#CCCC(CCC#N)(CCC#N)NO
GI50 (Hs-578T): > 100 µM (inactive)
GI50 (UACC-257): > 100 µM (inactive)
GI50 (SW-620): > 100 µM (inactive)
GI50 (SK-OV-3): > 100 µM (inactive)
GI50 (TK-10): > 100 µM (inactive)
GI50 (NCI-H460): > 100 µM (inactive)
GI50 (K562): > 100 µM (inactive)
GI50 (BT-549): > 100 µM (inactive)
GI50 (A549): > 100 µM (inactive)
GI50 (T47D): > 100 µM (inactive)
GI50 (MCF7): > 100 µM (inactive)
GI50 (COLO 205): > 100 µM (inactive)
GI50 (HT-29): > 100 µM (inactive)
GI50 (HL-60): > 100 µM (inactive)
GI50 (KM12): > 100 µM (inactive)
GI50 (HCT-15): > 100 µM
GI50 (UACC-62): > 100 µM (inactive)
GI50 (HCT-116): > 100 µM (inactive)
GI50 (HOP-92): > 100 µM (inactive)
GI50 (OVCAR-8): > 100 µM (inactive)
GI50 (MDA-MB-435): > 100 µM (inactive)
GI50 (SK-MEL-5): > 100 µM (inactive)
GI50 (NCI-H226): > 100 µM (inactive)
GI50 (SNB-75): 73.8 µM (inactive)
GI50 (IGROV-1): > 100 µM (inactive)
GI50 (EKVX): > 100 µM (inactive)
GI50 (Malme-3M): > 100 µM (inactive)
GI50 (NCI/ADR-RES): > 100 µM (inactive)
GI50 (RXF 393): > 100 µM (inactive)
GI50 (PC-3): > 100 µM (inactive)
GI50 (CAKI-1): > 100 µM (inactive)
GI50 (ACHN): > 100 µM (inactive)
GI50 (SF-295): > 100 µM (inactive)
GI50 (SNB-19): > 100 µM (inactive)
GI50 (RPMI-8226): > 100 µM (inactive)
GI50 (M14): > 100 µM (inactive)
GI50 (MDA-N): > 100 µM (inactive)
GI50 (SR): > 100 µM (inactive)
GI50 (OVCAR-5): > 100 µM (inactive)
GI50 (NCI-H522): 0.013 µM (active)
GI50 (786-0): > 100 µM (inactive)
GI50 (NCI-H23): > 100 µM (inactive)
GI50 (SF-539): > 100 µM (inactive)
GI50 (SK-MEL-2): > 100 µM (inactive)
GI50 (SF-268): > 100 µM (inactive)
GI50 (DU-145): > 100 µM (inactive)
GI50 (UO-31): > 100 µM (inactive)
GI50 (MDA-MB-231): > 100 µM (inactive)
GI50 (U-251): > 100 µM (inactive)
GI50 (SN12C): > 100 µM (inactive)
